# In patent publication US20260285801A1, “LIPID NANOPARTICLE FOR TARGETED DELIVERY OF THERAPEUTIC PAYLOADS” (Trustees of Tufts College, priority 2023, published 2026):
# Legend:
# [1] = LNP size and polydispersity index by dynamic light scattering (Zetasizer Nano ZS); type: physicochemical; details: LNP with mRNA payload formulated with the lipid; active lipid/Cholesterol/DOPC/DMG-PEG 16.8/4.0/2.0/1.0; Lipids:mRNA 25:1; PBS pH 7.4, 25° C.
# Protocol: (§1) RNA working solutions (0.134 mg/ml) were prepared in 25 mM sodium acetate buffer using DNase/RNase-free distilled water. Lipid stock solutions (10 mg/mL) were freshly prepared with active lipids or helper lipids (e.g., cholesterol, DOPC or DSPC, or ALC-0159) in ethanol. Reagents were mixed by vortexing and sonicating until the lipids were completely dissolved. A lipid mixture was first prepared by combining the active lipids (e.g., ionizable lipids of the present disclosure) and helper lipids into one vial and mixing thoroughly. Lipid nanoparticles were then formed by mixing the RNA working solution (0.134 mg/ml) and the lipid mixture at 3:1 volume ratio, either manually (for smaller scale) or by Precision Igniter microfluidic device. The formulation solution was transferred into a 300 kDa MWCO Float-A-Lyzer G2 Dialysis Device and dialyzed against at least 1000-folds volume of 50 mM Tris buffer overnight at 4° C. The LNP solution was sterilized with a 0.22 μm filter.
# (§2) For LNP characterization, size and polydispersity index (PDI) were determined by dynamic light scattering using a Zetasizer Nano ZS. 10 μL of LNP suspension was transferred to a low-volume cuvette containing 900 μL of Ca^2+ and Mg^2+ free PBS at pH 7.4. Refractive index was set to […] and temperature was set to 25° C. Encapsulation efficiency (EE %) was measured using a fluorescence plate-based assay employing the Ribogreen reagent (Invitrogen) as per PNI Ribogreen assay protocol 16. This assay measures the quantity of mRNA in samples with intact LNPs to determine the quantity of unencapsulated RNA as well as in LNP samples disrupted by triton X-100 to measure the total RNA. EE % is calculated as the difference between the total RNA and the unencapsulated RNA divided by the total RNA.
# [2] = Encapsulation efficiency and mRNA quantity by Ribogreen fluorescence plate assay; type: physicochemical; details: LNP with mRNA payload formulated with the lipid, 16.8/4.0/2.0/1.0, Lipids:mRNA 25:1; for EE %: (total RNA - unencapsulated RNA)/total RNA
# Protocol: as §1, §2
# female adult BALB/c mice = experiment: IV injection of Luc mRNA/LNP, whole body bioluminescence by IVIS imaging; type: in vivo; details: single i.v., 5 μg mRNA, 6 hours post injection; for delivery of the luciferase mRNA to the liver in vivo (luciferase intensity, IVIS): LNPs of L88, L854, L855 compared, FIGS. 4A-5B
# Protocol: All animal experiments were conducted in accordance with the approved animal protocols. LNPs were formulated with lipids and mRNA encoding Luciferase (Luc) based on TABLE 3. LNPs comprising 5 μg mRNA and 50 μg active lipids (e.g., ionizable lipids) were injected intravenously (i.v.) to female adult BALB/c mice (6-8 wk. old). Six hours post injection, 100 μL of luciferin K salt (15 mg/mL in PBS) was administered to the mice through intraperitoneal injections. The mice were then imaged using the In Vivo Imaging System (IVIS) and the total flux of areas of interest was quantified. FIGS. 2A-2G illustrate representative IVIS data using the LNPs formulated with active lipids from TABLE 4. […] FIGS. 4A-7B show further analysis of the IVIS results. In FIGS. 4A-4B and FIGS. 5A-5B, the lipid nanoparticles were formulated with luciferase mRNA and lipids L88, L854, and L855, respectively. The experiment was conducted in duplicates. […] Existing lipid formulations in the industry were used as controls in the experiment. For example, lipids provided herein were compared to ALC-0315 (Pfizer) and SM-102 (Moderna).
SMILES,PDI [1],Size (nm) [1] [nm],[mRNA] Ug/ml [2] [Ug/ml],EE % [2] [%],"delivery of the luciferase mRNA to the liver in vivo (luciferase intensity, IVIS) (female adult BALB/c mice)",luciferase mRNA delivery to the liver compared to ALC-0315 (female adult BALB/c mice; FIGS. 6A-6B),luciferase mRNA delivery compared to SM-102 (female adult BALB/c mice; FIGS. 7A-7B)
CCCCC/C=C\CCCOC(=O)CCN(CCCN(C)CCCN(CCC(=O)OCCC/C=C\CCCCC)CCC(=O)OCCC/C=C\CCCCC)CCC(=O)OCCC/C=C\CCCCC [Lipid L0824],0.12,95.98,93.4,68,,,
CC/C=C\CCCC[Se]CCOC(=O)CCN(CCCN(C)CCCN(CCC(=O)OCC[Se]CCCC/C=C\CC)CCC(=O)OCC[Se]CCCC/C=C\CC)CCC(=O)OCC[Se]CCCC/C=C\CC [Lipid L0825],0.099,118.7,91.2,62,,,
CCCC/C=C\CCOC(=O)CCN(CCCN(C)CCCN(CCC(=O)OCC/C=C\CCCC)CCC(=O)OCC/C=C\CCCC)CCC(=O)OCC/C=C\CCCC [Lipid L0826],0.082,141,95.2,39,,,
CC/C=C\CCCCOC(=O)CCN(CCCN(C)CCCN(CCC(=O)OCCCC/C=C\CC)CCC(=O)OCCOC(=O)OCC(CCCC)CCCCCC)CCC(=O)OCCCC/C=C\CC (centres unmarked) [Lipid L0829],0.13,98.3,78,92,,,
CC/C=C\CCCCOC(=O)CCN(CCCN(C)CCCN(CCC(=O)OCCOC(=O)OCC(CCCC)CCCCCC)CCC(=O)OCCOC(=O)OCC(CCCC)CCCCCC)CCC(=O)OCCOC(=O)OCC(CCCC)CCCCCC (centres unmarked) [Lipid L0830],0.105,125.1,91,48,,,
CCCCCCC(CCCC)COC(=O)CCOC(=O)CCN(CCCN(C)CCCN(CCC(=O)OCCC(=O)OCC(CCCC)CCCCCC)CCC(=O)OCCC(=O)OCC(CCCC)CCCCCC)CCC(=O)OCCC(=O)OCC(CCCC)CCCCCC (centres unmarked) [Lipid L0854],0.098,120.3,77.7,94.6,more efficient delivery of the luciferase mRNA to the liver,more luciferase mRNA delivery to the liver than ALC-0315,
CCCCCCC(CCCC)COC(=O)CCOC(=O)CCN(CCC(=O)OCCC(=O)OCC(CCCC)CCCCCC)CCN(C)CCN(CCC(=O)OCCC(=O)OCC(CCCC)CCCCCC)CCC(=O)OCCC(=O)OCC(CCCC)CCCCCC (centres unmarked) [Lipid L0855],0.125,99.86,78.9,95.1,more efficient delivery of the luciferase mRNA to the liver,,more luciferase mRNA delivery than SM-102
